In patent publication US11014911B2, “CDK2 inhibitors” (Pfizer Inc., priority 2019, dated 2021):

Legend:
GSK3β (H350L) = GSK3β (H350L) (Homo sapiens (Human), UniProt P49841); experiment: biochemical; details: GSK3β Ki (nM)
Procedure: The assay was initiated with the addition of ATP, following 15 minutes pre-incubation of enzyme and inhibitor at room temperature in the reaction mixture. The reaction was stopped after 30 minutes at room temperature by the addition of 50 μL of 80 mM EDTA.

[1] = biological target: CDK2/Cyclin E1 full length (Homo sapiens (Human), UniProt P24941); experiment: CDK2/Cyclin E1 full length mobility shift assay; type: biochemical
Procedure: Cdk2/Cyclin E1 Full Length Mobility Shift Assay
Wild-type CDK2/wild-type full length Cyclin E1 enzyme complex was produced in-house (baculoviral expression, LJIC-2080/LJIC-2103) and phosphorylated by CDK7/Cyclin H1/Matl enzyme complex with CDK2:CDK7 ratio of 50:1 (concentration mg/mL) in the presence of 10 mM MgCl2 and 5 mM ATP at room temperature for one hour. […] The assay was initiated with the addition of ATP, following a fifteen minutes pre-incubation of enzyme and inhibitor at room temperature in the reaction mixture. The reaction was stopped after 45 minutes at room temperature by the addition of 50 μL of 80 mM EDTA.

Sequence of GSK3β (H350L) (P49841 whole entry, stated change not applied): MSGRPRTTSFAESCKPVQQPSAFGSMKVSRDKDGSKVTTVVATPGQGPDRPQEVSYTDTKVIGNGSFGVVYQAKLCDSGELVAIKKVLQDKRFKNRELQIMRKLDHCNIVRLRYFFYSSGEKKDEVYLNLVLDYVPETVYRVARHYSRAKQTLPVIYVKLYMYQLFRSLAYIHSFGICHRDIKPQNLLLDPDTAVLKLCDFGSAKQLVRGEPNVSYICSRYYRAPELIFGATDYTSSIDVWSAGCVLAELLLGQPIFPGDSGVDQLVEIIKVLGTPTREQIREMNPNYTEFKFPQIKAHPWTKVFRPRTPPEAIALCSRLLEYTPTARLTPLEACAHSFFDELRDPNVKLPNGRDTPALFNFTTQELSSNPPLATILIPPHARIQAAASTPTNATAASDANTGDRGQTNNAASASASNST

| Compound | Ki (GSK3β (H350L)) [nM] | Ki [1] [nM] |
| --- | --- | --- |
| CCC(CO)CNC(=O)O[C@@H]1CC[C@H](c2cc(NC(=O)Cc3cc(C)no3)n[nH]2)C1 (single isomer, unassigned) [Example 525] | 7.01 | 1.24 |
| COc1ccc(S(C)(=O)=O)c(CC(=O)Nc2cc([C@H]3CC[C@@H](OC(=O)NC(C)C(F)(F)F)C3)[nH]n2)c1 (single isomer, unassigned) [Example 291] | > 47.6 | 0.43 |
| CC1(NC(=O)O[C@@H]2CC[C@H](c3cc(NC(=O)Cc4ccno4)n[nH]3)C2)CCOC1 (single isomer, unassigned) [Example 473] | 66.2 | 0.36 |
| CC(CC(F)(F)F)NC(=O)O[C@@H]1CC[C@H](c2cc(NC(=O)Cc3ccon3)n[nH]2)C1 (single isomer, unassigned) [Example 64] | 18.7 | 0.14 |
| CCC(CO)CNC(=O)O[C@@H]1CC[C@H](c2cc(NC(=O)Cc3ccc(OC)nc3)n[nH]2)C1 (single isomer, unassigned) [Example 533] | 1.41 | 0.77 |
| CCC(CO)CNC(=O)O[C@@H]1CC[C@H](c2cc(NC(=O)Cc3ccc(OC)nc3)n[nH]2)C1 (single isomer, unassigned) [Example 532] | 2.97 | 0.89 |
| CCC(CO)CNC(=O)O[C@@H]1CC[C@H](c2cc(NC(=O)Cc3cnc(C)s3)n[nH]2)C1 (single isomer, unassigned) [Example 528] | 3.6 | 1.11 |
| CCC(NC(=O)O[C@@H]1CC[C@H](c2cc(NC(=O)Cc3ccc(C)nc3)n[nH]2)C1)C(F)(F)F (single isomer, unassigned) [Example 398] | 44.1 | 0.65 |
| Cc1ncc(CC(=O)Nc2cc([C@H]3CC[C@@H](OC(=O)NC4(C)CCOC4)C3)[nH]n2)s1 (single isomer, unassigned) [Example 481] | 44.6 | 0.53 |
| CC1(NC(=O)O[C@@H]2CC[C@H](c3cc(NC(=O)Cc4cnc(C(F)(F)F)cn4)n[nH]3)C2)CCOC1 (single isomer, unassigned) [Example 494] | 53.3 | 1.02 |
| CCC(CO)CNC(=O)O[C@@H]1CC[C@H](c2cc(NC(=O)Cc3ccnc(OC)c3)n[nH]2)C1 (single isomer, unassigned) [Example 535] | 3.8 | 1.21 |
| CC(CC(F)(F)F)NC(=O)O[C@@H]1CC[C@H](c2cc(NC(=O)Cc3cnn(C(C)C)c3)n[nH]2)C1 (single isomer, unassigned) [Example 408] | 17.9 | 0.29 |
| CCC(NC(=O)O[C@@H]1CC[C@H](c2cc(NC(=O)Cc3ccnc(OC)c3)n[nH]2)C1)C(F)(F)F (single isomer, unassigned) [Example 405] | 97.9 | 1.37 |
| CCCNC(=O)O[C@H]1CC[C@@H](c2cc(NC(=O)C3COc4ccccc43)n[nH]2)C1 (single isomer, unassigned) [Example 25] | 135 | 2.7 |
| Cc1cnc(CC(=O)Nc2cc([C@H]3CC[C@@H](OC(=O)NC4(C)CCOC4)C3)[nH]n2)o1 (single isomer, unassigned) [Example 477] | 59.2 | 1.04 |
| CCC(CO)CNC(=O)O[C@@H]1CC[C@H](c2cc(NC(=O)Cc3ccnc(OC)c3)n[nH]2)C1 (single isomer, unassigned) [Example 534] | 4.63 | 0.85 |
| CCC(NC(=O)O[C@@H]1CC[C@H](c2cc(NC(=O)Cc3ccc(C)nc3)n[nH]2)C1)C(F)(F)F (single isomer, unassigned) [Example 399] | 68.8 | 0.47 |
| COc1cc(CC(=O)Nc2cc([C@H]3CC[C@@H](OC(=O)NC(C)C(C)(F)F)C3)[nH]n2)ccn1 (single isomer, unassigned) [Example 393] | 34 | 0.97 |
| COc1ccc(CC(=O)Nc2cc([C@H]3CC[C@@H](OC(=O)N4C[C@@H](C#N)[C@@H]4C)C3)[nH]n2)cn1 (single isomer, unassigned) [Example 158] | 0.78 | 0.17 |
| Cc1ccc(CC(=O)Nc2cc([C@H]3CC[C@@H](OC(=O)NC(C)C(C)(F)F)C3)[nH]n2)cn1 (single isomer, unassigned) [Example 389] | 18.3 | 0.83 |
| COCc1cc(C(=O)Nc2cc([C@H]3CC[C@@H](OC(=O)NC4(C)CC4)C3)[nH]n2)n(C)n1 [Example 8, (1R,3S)-3-[3-({[3-(methoxymethyl)-1-methyl-1H-pyrazol-5-yl]carbonyl}amino)-1H-pyrazol-5-yl]cyclopentyl (1-methylcyclopropyl)carbamate] | 667 | 0.5 |

The next lines start with the values.

| Ki (GSK3β (H350L)) [nM] | Ki [1] [nM] | Compound |
| --- | --- | --- |
| 12.7 | 0.22 | COc1ccc(CC(=O)Nc2cc([C@H]3CC[C@@H](OC(=O)NC4(C)CCOC4)C3)[nH]n2)cn1 (single isomer, unassigned) [Example 122] |
| 8.9 | 0.15 | COc1cc(CC(=O)Nc2cc([C@H]3CC[C@@H](OC(=O)NC(C)CC(F)(F)F)C3)[nH]n2)ccn1 (single isomer, unassigned) [Example 78] |
| 33.3 | 0.69 | CC(CC(F)(F)F)NC(=O)O[C@@H]1CC[C@H](c2cc(NC(=O)Cc3cnco3)n[nH]2)C1 (single isomer, unassigned) [Example 83] |
| 16.5 | 0.54 | Cc1ncc(CC(=O)Nc2cc([C@H]3CC[C@@H](OC(=O)NC(C)CC(F)(F)F)C3)[nH]n2)s1 (single isomer, unassigned) [Example 79] |
| 12 | 0.1 | CC(CC(F)(F)F)NC(=O)O[C@@H]1CC[C@H](c2cc(NC(=O)Cc3cnco3)n[nH]2)C1 (single isomer, unassigned) [Example 84] |
| 33.8 | 1.01 | Cc1cc(CC(=O)Nc2cc([C@H]3CC[C@@H](OC(=O)NC(C)CC(F)(F)F)C3)[nH]n2)on1 (single isomer, unassigned) [Example 71] |
| 18 | 0.39 | Cc1cnc(CC(=O)Nc2cc([C@H]3CC[C@@H](OC(=O)NC(C)CC(F)F)C3)[nH]n2)o1 (single isomer, unassigned) [Example 97] |
| 16.4 | 0.78 | CCC1CCN1C(=O)O[C@@H]1CC[C@H](c2cc(NC(=O)Cc3cc(C)no3)n[nH]2)C1 (single isomer, unassigned) [Example 598] |
| 12.8 | 0.15 | Cc1cc(CC(=O)Nc2cc([C@H]3CC[C@@H](OC(=O)NC(C)CC(F)(F)F)C3)[nH]n2)on1 (single isomer, unassigned) [Example 72] |
| 80.7 | 0.19 | CC1(NC(=O)O[C@@H]2CC[C@H](c3cc(NC(=O)Cc4ccccc4)n[nH]3)C2)CCOC1 (single isomer, unassigned) [Example 124] |
| 20.9 | 0.54 | CCC1CCN1C(=O)O[C@@H]1CC[C@H](c2cc(NC(=O)Cc3cc(C)no3)n[nH]2)C1 (single isomer, unassigned) [Example 597] |
| 19.4 | 0.08 | CC1(NC(=O)O[C@@H]2CC[C@H](c3cc(NC(=O)Cc4cc(F)cc(F)c4)n[nH]3)C2)CCOC1 (single isomer, unassigned) [Example 121] |
| 20.1 | 0.23 | COc1ncc(CC(=O)Nc2cc([C@H]3CC[C@@H](OC(=O)NC4(C)CCOC4)C3)[nH]n2)s1 (single isomer, unassigned) [Example 127] |
| 17.9 | 0.17 | CC(CC(F)(F)F)NC(=O)O[C@@H]1CC[C@H](c2cc(NC(=O)Cc3ccn(C)n3)n[nH]2)C1 (single isomer, unassigned) [Example 66] |
| 32.9 | 1.48 | Cc1cnc(CC(=O)Nc2cc([C@H]3CC[C@@H](OC(=O)NC(C)CC(F)(F)F)C3)[nH]n2)o1 (single isomer, unassigned) [Example 81] |
| 19.7 | 0.39 | COc1cc(CC(=O)Nc2cc([C@H]3CC[C@@H](OC(=O)NC(C)CC(F)(F)F)C3)[nH]n2)ccn1 (single isomer, unassigned) [Example 77] |
| 8.87 | 0.13 | COc1ccc(CC(=O)Nc2cc([C@H]3CC[C@@H](OC(=O)NC4(C)CCOC4)C3)[nH]n2)cn1 (single isomer, unassigned) [Example 123] |
| 16.3 | 0.36 | COc1cnc(CC(=O)Nc2cc([C@H]3CC[C@@H](OC(=O)NC(C)CC(F)(F)F)C3)[nH]n2)cn1 (single isomer, unassigned) [Example 68] |
| 13.8 | 0.07 | CCC1(C)CCN1C(=O)O[C@@H]1CC[C@H](c2cc(NC(=O)Cc3cc(C)no3)n[nH]2)C1 (single isomer, unassigned) [Example 603] |
| 26.6 | 0.27 | COc1ncc(CC(=O)Nc2cc([C@H]3CC[C@@H](OC(=O)NC4(C)CCOC4)C3)[nH]n2)s1 (single isomer, unassigned) [Example 126] |
| 2.36 | 0.23 | CC(CC(F)(F)F)N(C)C(=O)O[C@@H]1CC[C@H](c2cc(NC(=O)Cc3ccno3)n[nH]2)C1 (single isomer, unassigned) [Example 90] |
| 74.2 | 0.77 | C[C@H](F)[C@H](C)NC(=O)O[C@@H]1CC[C@H](c2cc(NC(=O)Cc3cnn(C)c3)n[nH]2)C1 (single isomer, unassigned) [Example 382, (1R,3S)-3-(3-{[(1-methyl-1H-pyrazol-4-yl)acetyl]amino}-1H-pyrazol-5-yl)cyclopentyl [(2S*,3S*)-3-fluorobutan-2-yl]carbamate] |
| > 47.6 | 0.67 | COCc1cc(C(=O)Nc2cc([C@H]3CC[C@@H](OC(=O)NC4(C)CCOC4)C3)[nH]n2)n(C)n1 (single isomer, unassigned) [Example 487] |
| 32.9 | 0.34 | Cc1c(CC(=O)Nc2cc([C@H]3CC[C@@H](OC(=O)NC(C)CC(F)(F)F)C3)[nH]n2)cnn1C (single isomer, unassigned) [Example 401] |
| 3.44 | 0.42 | CC(CC(F)(F)F)N(C)C(=O)O[C@@H]1CC[C@H](c2cc(NC(=O)Cc3cnn(C)c3)n[nH]2)C1 (single isomer, unassigned) [Example 414] |
